Key:
[1] = Pharmacokinetics in rat plasma; assay type: in vivo, Wistar rats; settings: for AUC(0-t) / AUC(0-inf) / CL/F / Cmax / MRT last / MRT inf / half-life / Tmax: Wistar, rat, plasma, po, 100 mg/kg; for AUC(0-t): AUC0-t; for AUC(0-inf): AUC0-∞; for CL/F: CLz/F; for MRT last: MRT0-t; for MRT inf: MRT0-∞; for Cmax after modeling compared with control group: oral administration of FS
[2] = Stability test of QC samples; assay type: physicochemical, rat
[3] = rats, oral, 12.5 to 50 mg kg^−1; cited from earlier work
[4] = FS-C: normal (blank) rats, oral FS 100 mg kg^−1, n = 6
[5] = FT-C: normal (blank) rats, oral FT 100 mg kg^−1, n = 6
[6] = T1/2, FS-C: normal (blank) rats, oral FS 100 mg kg^−1, n = 6
[7] = control group, after oral administration of FS or FT
[8] = Store at 4 °C for 24 h, high concentration QC sample in rat plasma
[9] = Store at 4 °C for 24 h, low concentration QC sample in rat plasma
[10] = Store at 4 °C for 24 h, medium concentration QC sample in rat plasma
[11] = Store at room temperature for 12 h, high concentration QC sample in rat plasma
[12] = Store at room temperature for 12 h, low concentration QC sample in rat plasma
[13] = Store at room temperature for 12 h, medium concentration QC sample in rat plasma
[14] = Store at −20 °C for 20 days, high concentration QC sample in rat plasma
[15] = Store at −20 °C for 20 days, low concentration QC sample in rat plasma
[16] = Store at −20 °C for 20 days, medium concentration QC sample in rat plasma
[17] = Three freeze-thaw cycles, high concentration QC sample in rat plasma
[18] = Three freeze-thaw cycles, low concentration QC sample in rat plasma
[19] = Three freeze-thaw cycles, medium concentration QC sample in rat plasma

Row | AUC(0-t) [1, 4] [ng·h/mL] | AUC(0-t) [1, 5] [ng·h/mL] | AUC(0-inf) [1, 4] [ng·h/mL] | AUC(0-inf) [1, 5] [ng·h/mL] | CL/F [1, 4] [mL/min/kg] | CL/F [1, 5] [mL/min/kg] | Cmax [1, 4] [ng/mL] | Cmax [1, 5] [ng/mL] | MRT last [1, 4] [h] | MRT last [1, 5] [h] | MRT inf [1, 4] [h] | MRT inf [1, 5] [h] | half-life [1, 6] [min] | Tmax [1, 4] [min] | Tmax [1, 5] [min] | Tmax [1, 7] [min] | Cmax in FT compared with FS ([1]; normal group, p < 0.01, 0.05) | Cmax after modeling compared with control group [1] | Stability, Accuracy (RE, %) [2, 8] [%] | Stability, Accuracy (RE, %) [2, 9] [%] | Structure (SMILES) | other results
1 | 218 ± 14.9 | 104 ± 17.2 | 222 ± 20.6 | 109 ± 28.6 | 2060 | 3430 | 54.5 ± 5.34 | 16.4 ± 4.28 | 5.01 ± 0.38 | 7.95 ± 1.33 | 5.48 ± 1.41 | 8.82 ± 3.43 | 145 ± 150 | 23.4 ± 5.4 | 13.2 ± 5.4 | < 23.4 | significantly lower | increased | 5.57 | −6.18 | O=C(/C=C/c1ccc(O)c(O)c1)O[C@H](Cc1ccc(O)c(O)c1)C(=O)O [Rosmarinic acid] | half-life ([1]; T1/2, FT-C: normal (blank) rats, oral FT 100 mg kg^−1, n = 6): 175 ± 223 min; MRT0-t after oral FT compared with the FS group ([1]; both before and after modeling): increased; CLz/F in FT compared with FS ([1]; normal group, p < 0.01): higher; AUC0-t in FT compared with FS ([1]; normal group, p < 0.01, 0.05): significantly lower; AUC0-∞ in FT compared with FS ([1]; normal group, p < 0.01, 0.05): significantly lower; Stability, Accuracy (RE, %) [2, 10]: 0.63%; Stability, Accuracy (RE, %) [2, 11]: −10.92%; Stability, Accuracy (RE, %) [2, 12]: −3.95%; Stability, Accuracy (RE, %) [2, 13]: −0.80%; Stability, Accuracy (RE, %) [2, 14]: 0.99%; Stability, Accuracy (RE, %) [2, 15]: 1.19%; Stability, Accuracy (RE, %) [2, 16]: 6.02%; Stability, Accuracy (RE, %) [2, 17]: −4.84%; Stability, Accuracy (RE, %) [2, 18]: 1.82%; Stability, Accuracy (RE, %) [2, 19]: −0.56%; pharmacokinetic characteristics [3]: fast absorption, moderate elimination and low absolute bioavailability
2 | 37.2 ± 11.5 | 31.7 ± 12 | 40.5 ± 18.6 | 44.4 ± 30.2 | 5.67 | 10.2 | 5.78 ± 0.23 | 4.65 ± 0.38 | 5.78 ± 2.57 | 5.61 ± 2.5 | 7.21 ± 5.95 | 10.7 ± 10.2 | 217 ± 293 | 43.2 ± 18.6 | 36.6 ± 40.8 | > 28.2 | significantly lower | decreased | 2.95 | 6.27 | O=C(O)/C=C/c1ccc(O)c(O)c1 [Caffeic acid] | AUC0-t after modeling compared with control group ([1]; oral administration of FT): increased; Stability, Accuracy (RE, %) [2, 10]: −2.07%; Stability, Accuracy (RE, %) [2, 11]: 5.38%; Stability, Accuracy (RE, %) [2, 12]: −2.45%; Stability, Accuracy (RE, %) [2, 13]: 2.52%; Stability, Accuracy (RE, %) [2, 14]: 3.39%; Stability, Accuracy (RE, %) [2, 15]: −12.26%; Stability, Accuracy (RE, %) [2, 16]: 0.41%; Stability, Accuracy (RE, %) [2, 17]: 12.71%; Stability, Accuracy (RE, %) [2, 18]: 3.68%; Stability, Accuracy (RE, %) [2, 19]: 11.31%

Source: paper PMC11108815 (Heliyon, 2024)
